Reference: patent publication US9963462B2 (priority 2015, dated 2018)

Key:
[1] = target: SNAP-hSPR (sepiapterin reductase, SPR) (Homo sapiens, UniProt P35270); test: biochemical; format: binding; settings: terbium labelled SNAP-hSPR / SSZ labelled SNAP-EGFP; read-out: hTR-FRET IC50
From the text: TR-FRET Assay: A TR-FRET (homogeneous, time-resolved, fluorescence resonance energy transfer) assay was used to assess activity of compounds following standard assay conditions. […] Compounds were screened at different concentrations and IC50 values calculated.
Terbium labelled SNAP-hSPR and SSZ (sulfasalazine) labelled SNAP-EGFP were used as the protein pair in this assay. Compounds were screened at different concentrations, and 1050 and Kd values calculated.

[2] = test system: BH4 levels in SK-N-BE (2) cells; test: SKN-N-BE (2) cellular assay, BH4 levels by LC-MS; format: cell-based; settings: Homo sapiens, SKNBE2, read-out: SK-N-BE(2) IC50, SK-N-BE (2) cells, BH4 levels by LC-MS

Chain of SNAP-hSPR (sepiapterin reductase, SPR) (P35270 whole entry): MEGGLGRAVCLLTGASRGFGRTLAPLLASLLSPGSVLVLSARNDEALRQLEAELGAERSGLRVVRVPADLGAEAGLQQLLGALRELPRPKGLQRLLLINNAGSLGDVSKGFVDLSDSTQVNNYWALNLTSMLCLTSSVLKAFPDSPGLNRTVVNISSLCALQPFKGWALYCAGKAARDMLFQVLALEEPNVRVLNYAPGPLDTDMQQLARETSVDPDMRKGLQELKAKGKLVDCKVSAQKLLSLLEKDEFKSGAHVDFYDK

Structure (SMILES)	IC50 [1] [µM]	IC50 [2] [µM]
Cc1c(C(=O)N2CCC(C(C)(C)C#N)CC2)cnn1-c1nc2c(c(=O)[nH]1)CCC2 [Q-0469]	0.004	0.037
COC1CN(C(=O)c2cnn(-c3nc4c(c(=O)[nH]3)CCC4)c2C)C1 [Q-0470]	0.005	1
COC(=O)c1ccc(-c2nc3c(c(=O)[nH]2)CCC3)nc1 [Q-0471]	0.08	16
O=C(c1ccc(-c2nc3c(c(=O)[nH]2)CCC3)nc1)N1CCC(C(F)(F)F)CC1 [Q-0472, 2-{5-[4-(trifluoromethyl)piperidine-1-carbonyl]pyridin-2-yl}-3H,4H,5H,6H,7H-cyclopenta[d]pyrimidin-4-one]	0.2	17
Cc1c(C(=O)N2CCC(C#N)(c3ccccc3)CC2)cnn1-c1nc2c(c(=O)[nH]1)CCC2 [Q-0473]	0.006	0.092
Cc1c(C(=O)N2CCC(CC(F)(F)F)CC2)cnn1-c1nc2c(c(=O)[nH]1)CCC2 [Q-0476]	0.003	0.056
Cc1c(C(=O)N2CCC(Oc3ccccc3)C2)cnn1-c1nc2c(c(=O)[nH]1)CCC2 (stereo not shown) [Q-0477]	0.005	0.091
COC1CCN(C(=O)c2cnn(-c3nc4c(c(=O)[nH]3)CCC4)c2C)C1 (stereo not shown) [Q-0478]	0.006	1.4
Cc1c(C(=O)N2CC(c3ccccc3)C2)cnn1-c1nc2c(c(=O)[nH]1)CCC2 [Q-0479]	0.006	0.1
Cc1c(C(=O)O)cnn1-c1nc2c(c(=O)[nH]1)CCC2 [Q-0481, 5-methyl-1-{4-oxo-3H,4H,5H,6H,7H-cyclopenta[d]pyrimidin-2-yl}-1H-pyrazole-4-carboxylic acid]	0.03	95
COC1CCCN(C(=O)c2cnn(-c3nc4c(c(=O)[nH]3)CCC4)c2C)C1 (stereo not shown) [Q-0482]	0.008	1
Cc1c(C(=O)N2CCC(O)(c3ccccc3)CC2C)cnn1-c1nc2c(c(=O)[nH]1)CCC2 (stereo not shown) [Q-0483]	0.004	0.049
Cc1ccccc1N1CCN(C(=O)c2cnn(-c3nc4c(c(=O)[nH]3)CCC4)c2C)CC1 [Q-0485]	0.009	0.062
Cc1c(C(=O)N(C)Cc2nnc(-c3ccc(Cl)cc3)o2)cnn1-c1nc2c(c(=O)[nH]1)CCC2 [Q-0486]	0.006	0.1
Cc1c(C(=O)N(CCC#N)C2CCCCC2)cnn1-c1nc2c(c(=O)[nH]1)CCC2 [Q-0487]	0.003	0.6
Cc1c(C(=O)N2CCC(c3ccccc3)CC2)cnn1-c1nc2[nH]ccc2c(=O)[nH]1 [Q-0488]	0.02	1.2
Cc1c(C(=O)N2Cc3ccccc3C[C@H]2C(=O)NC(C)(C)C)cnn1-c1nc2c(c(=O)[nH]1)CCC2 [Q-0489]	0.008	0.053
CCN(Cc1ccccc1)C(=O)c1cnn(-c2nc3c(c(=O)[nH]2)CCC3)c1C [Q-0490]	0.007	0.1
Cc1c(C(=O)N2CCC(Cc3ccccc3)CC2)cnn1-c1nc2c(c(=O)[nH]1)CCC2 [Q-0491]	0.02	0.037
Cc1c(C(=O)N(C)C2CCCCC2)cnn1-c1nc2c(c(=O)[nH]1)CCC2 [Q-0492]	0.008	0.2
Cc1c(C(=O)N(Cc2ccccc2)[C@@H](C)c2ccccc2)cnn1-c1nc2c(c(=O)[nH]1)CCC2 [Q-0493]	0.03	0.029

Structure (SMILES)	IC50 [1] [µM]	IC50 [2] [µM]
Cc1c(CN2CCCCC2=O)cnn1-c1nc2c(c(=O)[nH]1)CCC2 [Q-0494, 1-[(5-methyl-1-{4-oxo-3H,4H,5H,6H,7H-cyclopenta[d]pyrimidin-2-yl}-1H-pyrazol-4-yL)methyl]piperidin-2-one]	0.006	0.3
Cc1c(C(=O)N2CCC(c3ccccc3)CC2)cnn1-c1nc2ccsc2c(=O)[nH]1 [Q-0495]	0.005	0.051
Cc1c(C(=O)N2CCC[C@@H]2C(=O)OCc2ccccc2)cnn1-c1nc2c(c(=O)[nH]1)CCC2 [Q-0496]	0.007	0.4
Cc1c(C(=O)N(C)CCc2c[nH]c3ccccc23)cnn1-c1nc2c(c(=O)[nH]1)CCC2 [Q-0497]	0.009	0.4
Cc1c(C(=O)N2CCC(c3c[nH]c4ccccc34)CC2)cnn1-c1nc2c(c(=O)[nH]1)CCC2 [Q-0498]	0.02	0.03
Cc1c(C(=O)N2CCC(c3nc4ccccc4s3)CC2)cnn1-c1nc2c(c(=O)[nH]1)CCC2 [Q-0499]	0.02	0.044
Cc1c(C(=O)N(CC2COc3ccccc3O2)C(C)C)cnn1-c1nc2c(c(=O)[nH]1)CCC2 (stereo not shown) [Q-0500]	0.03	0.097
Cc1ccc(C2(C)CN(C(=O)c3cnn(-c4nc5c(c(=O)[nH]4)CCC5)c3C)CCO2)cc1 (stereo not shown) [Q-0501]	0.009	0.2
Cc1c(C(=O)N(CCc2ccccc2)CC(O)C(F)(F)F)cnn1-c1nc2c(c(=O)[nH]1)CCC2 (stereo not shown) [Q-0502]	0.02	0.4
Cc1c(C(=O)N2CCC(S(=O)(=O)c3ccccc3)CC2)cnn1-c1nc2c(c(=O)[nH]1)CCC2 [Q-0504]	0.004	0.058
Cc1c(C(=O)N2CCCCC2c2cccnc2)cnn1-c1nc2c(c(=O)[nH]1)CCC2 (stereo not shown) [Q-0505]	0.004	0.1
Cc1c(C(=O)N(C)Cc2ccc3ncccc3c2)cnn1-c1nc2c(c(=O)[nH]1)CCC2 [Q-0506]	0.003	0.2
Cc1c(C(=O)N2CCN(C(=O)OCc3ccccc3)C(C)C2)cnn1-c1nc2c(c(=O)[nH]1)CCC2 (stereo not shown) [Q-0507]	0.01	0.2
O=C(c1ccnc(-c2nc3c(c(=O)[nH]2)CCC3)c1)N1CCC(C(F)(F)F)CC1 [Q-0508]	0.03	2
Cc1c(C(=O)N2C3CCC2CC(O)(c2ccccc2)C3)cnn1-c1nc2c(c(=O)[nH]1)CCC2 (stereo not shown) [Q-0509]	0.003	0.068
Cc1c(C(=O)N2CCC(c3ccccc3)C2)cnn1-c1nc2c(c(=O)[nH]1)CCC2 (stereo not shown) [Q-0510]	0.005	0.1
O=C(c1cnn(-c2cc3ccsc3c(=O)[nH]2)c1)N1CCC(C(F)(F)F)CC1 [Q-0511, 5-{4-[4-(trifluoromethyl)piperidine-1-carbonyl]-1H-pyrazol-1-yl}-6H,7H-thieno[2,3-c]pyridin-7-one]	0.003	0.3
Cc1c(C(=O)N2C3CCC2CC(c2ccccc2)C3)cnn1-c1nc2c(c(=O)[nH]1)CCC2 (stereo not shown) [Q-0513]	0.01	0.047
COC1(c2ccccc2)CCN(C(=O)c2cnn(-c3nc4c(c(=O)[nH]3)CCC4)c2C)CC1 [Q-0514]	0.007	0.057
O=C(c1ccnc(-c2nc3ccsc3c(=O)[nH]2)c1)N1CCC(C(F)(F)F)CC1 [Q-0515]	0.04	5.3
O=C(c1cnn(-c2nc3ccsc3c(=O)[nH]2)c1)N1CCC(C(F)(F)F)CC1 [Q-0517]	0.002	0.1

Structure (SMILES)	IC50 [1] [µM]	IC50 [2] [µM]
COC1(C)CCN(C(=O)c2cnn(-c3nc4c(c(=O)[nH]3)CCC4)c2C)CC1 [Q-0520]	0.003	0.2
Cc1c(C(=O)N2CCC(OCC(F)(F)F)CC2)cnn1-c1nc2c(c(=O)[nH]1)CCC2 [Q-0521]	0.008	0.1
O=c1[nH]c(-c2cc(S(=O)(=O)N3CCC(C(F)(F)F)CC3)ccn2)nc2c1CCC2 [Q-0522]	0.3	10
N#CC1(c2ccccc2)CCN(C(=O)c2cnn(-c3nc4ccsc4c(=O)[nH]3)c2)CC1 [Q-0523]	0.02	0.1
O=C(c1cnn(-c2nc3ccsc3c(=O)[nH]2)c1)N1CCC(S(=O)(=O)c2ccccc2)CC1 [Q-0524]	0.004	1.1
O=C(c1cnn(-c2nc3c(c(=O)[nH]2)CCC3)c1)N1CCC(C(F)(F)F)CC1 [Q-0526, 2-{4-[4-(trifluoromethyl)piperidine-1-carbonyl]-1H-pyrazol-1-yl}-3H,4H,5H,6H,7H-cyclopenta[d]pyrimidin-4-one]	0.003	0.028
O=C(c1cnn(-c2nc3ccsc3c(=O)[nH]2)c1)N1CCC(c2c[nH]c3ccccc23)CC1 [Q-0527]	0.03	0.045
O=C(c1cnn(-c2nc3ccsc3c(=O)[nH]2)c1)N1CCC(c2nc3ccccc3s2)CC1 [Q-0528]	0.07	0.8
O=c1[nH]c(-n2cc(OC3CCCC3)cn2)nc2c1CCC2 [Q-0529]	0.01	0.1
O=C(c1cnc(-c2nc3ccsc3c(=O)[nH]2)s1)N1CCC(C(F)(F)F)CC1 [Q-0530]	0.03	1.8
Cc1c(C(=O)N2CCC(C(C)(C)C#N)CC2)cnn1-c1nc2ccsc2c(=O)[nH]1 [Q-0531]	0.004	0.062
Cc1c(C(=O)Nc2ccccc2N2CCOCC2)cnn1-c1nc2c(c(=O)[nH]1)CCC2 [Q-0532]	0.02	0.044
N#CC1(c2ccccc2)CCN(C(=O)c2cnn(-c3nn4cccc4c(=O)[nH]3)c2)CC1 [Q-0534]	0.003	0.1
O=C(c1cnn(-c2nn3cccc3c(=O)[nH]2)c1)N1CCC(S(=O)(=O)c2ccccc2)CC1 [Q-0535]	0.004	0.4
O=C(c1cnn(-c2nn3cccc3c(=O)[nH]2)c1)N1CCC(c2c[nH]c3ccccc23)CC1 [Q-0536]	0.007	0.059
O=C(c1cnn(-c2nn3cccc3c(=O)[nH]2)c1)N1CCC(c2nc3ccccc3s2)CC1 [Q-0537]	0.04	0.2
Cc1c(C(=O)N2CCC(C(F)(F)F)CC2)cnn1-c1nn2cc(F)cc2c(=O)[nH]1 [Q-0543]	0.003	0.4
Cc1c(C(=O)N2CCN(c3ccccc3)CC2)cnn1-c1nc2c(c(=O)[nH]1)CCC2 [Q-0545]	0.002	0.041
O=C(c1cnn(-c2nc3c(c(=O)[nH]2)CCC3)c1C1CC1)N1CCC(c2nc3ccccc3s2)CC1 [Q-0546]	0.009	0.084
O=C(O)c1ccnc(-c2nc3ccsc3c(=O)[nH]2)c1 [Q-0547]	2.3	10
